Measurements taken from PubChem BioAssay (NCI).
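Test compounds were applied to cells in 96-well plates for 48 hours at 5 doses. Abbreviation: GI50, concentration required for 50% inhibition of growth. TGI marks complete inhibition of growth.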

Key:
Assay in all cases: inhibition of tumour cell growth, NCI panel, 48 h
[1] = system: HCC-2998 colon
[2] = system: HL-60(TB) leukemia
[3] = system: MALME-3M melanoma
[4] = system: MOLT-4 leukemia
[5] = system: RXF 393 renal
[6] = system: PC-3 prostate
[7] = system: RPMI-8226 leukemia
[8] = system: IGROV1 ovarian
[9] = system: HOP-92 NSCLC
[10] = system: HT29 colon

Structure (SMILES)	GI50 [1]	TGI [1]	GI50 [2]	TGI [2]	GI50 [3]	TGI [3]	GI50 [4]	TGI [4]	GI50 [5]	TGI [5]	GI50 [6]	TGI [6]	GI50 [7]	TGI [7]	GI50 [8]	TGI [8]	GI50 [9]	TGI [9]	GI50 [10]	TGI [10]
C=C(C)[C@@H]1CC[C@]2(C(=O)O)CC[C@]3(C)[C@H](CC[C@@H]4[C@@]5(C)C/C(=C/c6cccc(I)c6)C(=O)C(C)(C)[C@@H]5CC[C@]43C)[C@@H]12	2.69 µM	9.69 µM	2.6 µM	8.58 µM	2.46 µM	6.65 µM	2.85 µM	9.45 µM	2.88 µM	11.8 µM	2.2 µM	10.6 µM	2.07 µM	7.06 µM	2.57 µM	8.7 µM	1.72 µM	5.28 µM	2.9 µM	9.76 µM
C[C@@H](Oc1cc(-n2cnc3ccc(OCC4CCN(C)CC4)cc32)sc1C(N)=O)c1ccccc1Cl	0.0815 µM	3.27 µM	0.044 µM	0.543 µM	2.93 µM	6.95 µM	0.0585 µM	3.13 µM	0.0546 µM	2.76 µM	0.136 µM	4.42 µM	0.094 µM	4.61 µM	0.129 µM	4.9 µM	0.156 µM	2.51 µM	0.0108 µM	2.68 µM
CC(C)=CC(=O)N[C@@H]1CC2CCC3C(CC[C@@]4(C)C3CC[C@@H]4C(C)N(C)C)[C@@]2(C)C[C@@H]1O (stereo not given in full)	5.44 µM	16.8 µM	1.61 µM	6.14 µM	2.91 µM	9.41 µM	2.5 µM	14 µM	3.12 µM	12.2 µM	3.73 µM	32.7 µM	2.51 µM	18.5 µM	5.54 µM	25.1 µM	2.37 µM	24.2 µM	0.496 µM	2.92 µM
O=C1/C(=C/c2ccc(Cl)cc2)CCC1CN1CCOCC1 (stereo not given)	–	23 µM	–	3.8 µM	–	20.3 µM	–	4.21 µM	–	11.2 µM	–	18.5 µM	–	> 28.3 µM	–	10.5 µM	–	16.1 µM	–	23 µM
CN(C)CC1CCCCCC(Br)C1=O (stereo not given)	–	25.7 µM	–	30.1 µM	–	17.6 µM	–	2.83 µM	–	32.6 µM	–	43.6 µM	–	3.96 µM	–	> 69.4 µM	–	22.2 µM	–	50.3 µM
O=C(c1nn(-c2ccc(Cl)cc2)cc1O)n1nc(C(F)(F)F)cc1-c1ccccc1	9.4 µM	> 100 µM	2.42 µM	> 100 µM	12.1 µM	> 100 µM	2.55 µM	> 100 µM	0.687 µM	> 76.1 µM	13.9 µM	> 100 µM	1.91 µM	> 85.3 µM	0.921 µM	> 100 µM	1.67 µM	> 21.4 µM	4.07 µM	> 83.8 µM
